According to patent publication US8748461B2, “Metalloenzyme inhibitor compounds” (Viamet Pharmaceuticals, Inc., priority 2011, dated 2014):
≈ marks a conversion by molar mass, not a printed value.

How the values were obtained:
[1] = tested on: Septoria tritici (ATCC 26517); test: Minimum Inhibitory Concentration (MIC) vs. Septoria tritici; type: cell-based; details: 50% reduction in growth of S. tritici, 22° C., seven days; for MIC: Zymoseptoria tritici, ATCC26517, 168 h, read-out: Septoria Rating (MIC)
Procedure: C. Minimum Inhibitory Concentration (MIC) vs. Septoria tritici Compounds were assessed for their ability to inhibit the growth of a common strain of the fungal plant pathogen Septoria tritici (ATCC 26517) using a procedure based on a Clinical and Laboratory Standards Institute (CLSI) microdilution assay protocol for filamentous fungi. Stock solutions of the test compounds and standards were prepared in DMSO at 6400 μg/mL. Each stock solution was used to prepare a 2-fold dilution series ranging from 16 to 0.016 μg/mL (total of 11 compound concentrations) in RPMI-1640 (Roswell Park Memorial Institute) medium containing 3-(N-morpholino)propanesulfonic acid (MOPS) buffer and 2% DMSO. A 100 μL aliquot of the dilutions was added to columns 1 (16 μg/mL compound) through 11 (0.016 μg/mL compound) of a 96-well microtiter plate. This format was replicated in a second row of the microtiter plate. Thus, each microtiter plate could include 11 concentrations of four test or control compounds replicated twice. A 100 μL aliquot of RPMI-1640/MOPS/2% DMSO medium was added to column 12 (no compound control) of the microtiter plate. A fresh culture of S. tritici was used to prepare a solution of approximately 5×10^4 colony-forming units per milliliter (cfu/mL) in RPMI/MOPS medium without DMSO. A 100 μL aliquot of this solution was added to all 96 wells in the microtiter plate. […] The assay plates were incubated at 22° C. for seven days in the dark without shaking. […] In each case of Table 3, the Septoria rating scale is as follows: […]

[2] = tested on: Puccinia recondita tritici = Puccinia triticina; test: Fungicidal activity vs. leaf rust on wheat plants; type: in vivo; details: 50 ppm spray on wheat (Yuma), inoculated the following day, evaluated 7-9 days later; for pest or weed control at 50 ppm: read-out: Puccinia Rating (% Disease Control @ 50 ppm)
Text: D. Evaluation of Fungicidal Activity Vs. Leaf Rust (Causal Agent Puccinia recondita Tritici=Puccinia triticina; Bayer code PUCCRT). […] Each pot contained 3-8 seedlings. These plants were sprayed until wet with the formulated test compounds. The compounds were formulated at 50 ppm in 10 vol. % acetone plus 90 vol. % Triton X water (deionized water 99.99 wt %+0.01 wt % Triton X100), giving a “formulated test compound.” Formulated test compounds were applied to plants using a turn table sprayer fitted with two opposing air atomization nozzles which delivered approximately 1500 L/ha of spray volume. On the following day, the leaves were inoculated with an aqueous spore suspension of Puccinia recondita tritici and the plants were kept in high humidity overnight to permit spores to germinate and infect the leaf. The plants were then transferred to a greenhouse until disease developed on untreated control plants. Disease severity was evaluated 7-9 days later, depending on the speed of disease development. In each case of Table 3, the Puccinia rating scale is as follows: […]

SMILES: N#Cc1ccc(COc2ccc(C(F)(F)C(O)(Cn3cnnn3)c3ccc(F)cc3F)nc2)cc1 (stereo not drawn) [Compound 9, 4-(((6-(2-(2,4-Difluorophenyl)-1,1-difluoro-2-hydroxy-3-(1H-tetrazol-1-yl)propyl)pyridin-3-yl)oxy)methyl)benzonitrile]
- MIC [1]: ≤ 0.5 µg/mL
- pest or weed control at 50 ppm [2]: 80 to 100%

SMILES: N#Cc1ccc(COc2ccc(C(F)(F)C(O)(Cn3cnnn3)c3ccc(F)cc3F)nc2)cc1F (stereo not drawn) [Compound 10, 4-(((6-(2-(2,4-Difluorophenyl)-1,1-difluoro-2-hydroxy-3-(1H-tetrazol-1-yl)propyl)pyridin-3-yl)oxy)methyl)-2-fluorobenzonitrile]
- MIC [1]: ≤ 0.5 µg/mL
- pest or weed control at 50 ppm [2]: 80 to 100%

SMILES: OC(Cn1cnnn1)(c1ccc(F)cc1F)C(F)(F)c1ccc(Oc2ccccc2)cn1 (stereo not drawn) [Compound 11, 2-(2,4-Difluorophenyl)-1,1-difluoro-1-(5-phenoxypyridin-2-yl)-3-(1H-tetrazol-1-yl)propan-2-ol]
- MIC [1]: ≤ 0.5 µg/mL
- pest or weed control at 50 ppm [2]: 80 to 100%

SMILES: OC(Cn1cnnn1)(c1ccc(F)cc1F)C(F)(F)c1ccc(OCC(F)(F)F)cn1 (stereo not drawn) [Compound 12, 2-(2,4-Difluorophenyl)-1,1-difluoro-3-(1H-tetrazol-1-yl)-1-(5-(2,2,2-trifluoroethoxy)pyridin-2-yl)propan-2-ol]
- MIC [1]: ≤ 0.5 µg/mL
- pest or weed control at 50 ppm [2]: 80 to 100%

SMILES: N#Cc1ccc(CSc2ccc(C(F)(F)C(O)(Cn3cnnn3)c3ccc(F)cc3F)nc2)c(F)c1 (stereo not drawn) [Compound 15, 4-(((6-(2-(2,4-Difluorophenyl)-1,1-difluoro-2-hydroxy-3-(1H-tetrazol-1-yl)propyl)pyridin-3-yl)thio)methyl)-3-fluorobenzonitrile]
- MIC [1]: ≤ 0.5 µg/mL
- pest or weed control at 50 ppm [2]: 40 to 59%

SMILES: N#Cc1ccc(Oc2ccc(C(F)(F)C(O)(Cn3cnnn3)c3ccc(F)cc3F)nc2)cc1F (stereo not drawn) [Compound 17, 4-((6-(2-(2,4-Difluorophenyl)-1,1-difluoro-2-hydroxy-3-(1H-tetrazol-1-yl)propyl)pyridin-3-yl)oxy)-2-fluorobenzonitrile]
- MIC [1]: ≤ 0.5 µg/mL
- pest or weed control at 50 ppm [2]: 80 to 100%

SMILES: OC(Cn1cnnn1)(c1ccc(F)cc1F)C(F)(F)c1ccc(OCc2ccc(OC(F)(F)F)cc2)cn1 (stereo not drawn) [Compound 21, 2-(2,4-Difluorophenyl)-1,1-difluoro-3-(1H-tetrazol-1-yl)-1-(5-((4-(trifluoromethoxy)benzyl)oxy)pyridin-2-yl)propan-2-ol]
- MIC [1]: ≤ 0.5 µg/mL
- pest or weed control at 50 ppm [2]: 80 to 100%

SMILES: OC(Cn1cnnn1)(c1ccc(F)cc1F)C(F)(F)c1ccc(OCc2ccc(C(F)(F)F)cc2)cn1 (stereo not drawn) [Compound 22, 2-(2,4-Difluorophenyl)-1,1-difluoro-3-(1H-tetrazol-1-yl)-1-(5-((4-(trifluoromethyl)benzyl)oxy)pyridin-2-yl)propan-2-ol]
- MIC [1]: ≤ 0.5 µg/mL
- pest or weed control at 50 ppm [2]: 80 to 100%

SMILES: OC(Cn1cnnn1)(c1ccc(F)cc1F)C(F)(F)c1ccc(OCc2cccc(F)c2F)cn1 (stereo not drawn) [Compound 23, 1-(5-((2,3-Difluorobenzyl)oxy)pyridin-2-yl)-2-(2,4-difluorophenyl)-1,1-difluoro-3-(1H-tetrazol-1-yl)propan-2-ol]
- MIC [1]: ≤ 0.5 µg/mL
- pest or weed control at 50 ppm [2]: 80 to 100%

SMILES: OC(Cn1cnnn1)(c1ccc(F)cc1F)C(F)(F)c1ccc(OCc2ccc(C(F)(F)F)cc2F)cn1 (stereo not drawn) [Compound 24, 2-(2,4-Difluorophenyl)-1,1-difluoro-1-(5-((2-fluoro-4-(trifluoromethyl)benzyl)oxy)pyridin-2-yl)-3-(1H-tetrazol-1-yl)propan-2-ol]
- MIC [1]: ≤ 0.5 µg/mL
- pest or weed control at 50 ppm [2]: 80 to 100%

SMILES: OC(Cn1cnnn1)(c1ccc(F)cc1F)C(F)(F)c1ccc(OCc2cccc(C(F)(F)F)c2)cn1 (stereo not drawn) [Compound 26, 2-(2,4-Difluorophenyl)-1,1-difluoro-3-(1H-tetrazol-1-yl)-1-(5-((3-(trifluoromethyl)benzyl)oxy)pyridin-2-yl)propan-2-ol]
- MIC [1]: ≤ 0.5 µg/mL
- pest or weed control at 50 ppm [2]: 80 to 100%

SMILES: OC(Cn1cnnn1)(c1ccc(F)cc1F)C(F)(F)c1ccc(OCc2ccc(Cl)c(F)c2)cn1 (stereo not drawn) [Compound 27, 1-(5-((4-Chloro-3-fluorobenzyl)oxy)pyridin-2-yl)-2-(2,4-difluorophenyl)-1,1-difluoro-3-(1H-tetrazol-1-yl)propan-2-ol]
- MIC [1]: ≤ 0.5 µg/mL
- pest or weed control at 50 ppm [2]: 80 to 100%

SMILES: OC(Cn1cnnn1)(c1ccc(F)cc1F)C(F)(F)c1ccc(OCc2ccc(F)c(F)c2)cn1 (stereo not drawn) [Compound 28, 1-(5-((3,4-Difluorobenzyl)oxy)pyridin-2-yl)-2-(2,4-difluorophenyl)-1,1-difluoro-3-(1H-tetrazol-1-yl)propan-2-ol]
- MIC [1]: ≤ 0.5 µg/mL
- pest or weed control at 50 ppm [2]: 80 to 100%

SMILES: OC(Cn1cnnn1)(c1ccc(F)cc1F)C(F)(F)c1ccc(OCc2ccccc2)cn1 (stereo not drawn) [Compound 30, 1-(5-(Benzyloxy)pyridin-2-yl)-2-(2,4-difluorophenyl)-1,1-difluoro-3-(1H-tetrazol-1-yl)propan-2-ol]
- Septoria Rating (MIC) [1]: A (≦0.5)
- Puccinia Rating (% Disease Control @ 50 ppm) [2]: A (80-100)

SMILES: COc1cccc(COc2ccc(C(F)(F)C(O)(Cn3cnnn3)c3ccc(F)cc3F)nc2)c1 (stereo not drawn) [Compound 34, 2-(2,4-Difluorophenyl)-1,1-difluoro-1-(5-((3-methoxybenzyl)oxy)pyridin-2-yl)-3-(1H-tetrazol-1-yl)propan-2-ol]
- MIC [1]: ≤ 0.5 µg/mL
- pest or weed control at 50 ppm [2]: 80 to 100%

SMILES: OC(Cn1cnnn1)(c1ccc(F)cc1F)C(F)(F)c1ccc(OCc2cc(F)cc(F)c2)cn1 (stereo not drawn) [Compound 35, 1-(5-((3,5-Difluorobenzyl)oxy)pyridin-2-yl)-2-(2,4-difluorophenyl)-1,1-difluoro-3-(1H-tetrazol-1-yl)propan-2-ol]
- MIC [1]: ≤ 0.5 µg/mL
- pest or weed control at 50 ppm [2]: 80 to 100%

SMILES: OC(Cn1cnnn1)(c1ccc(F)cc1F)C(F)(F)c1ccc(OCc2ccccn2)cn1 (stereo not drawn) [Compound 37, 2-(2,4-Difluorophenyl)-1,1-difluoro-1-(5-(pyridin-2-ylmethoxy)pyridin-2-yl)-3-(1H-tetrazol-1-yl)propan-2-ol]
- MIC [1]: 0.5 to 1.5 µg/mL (≈ 1.09 to 3.26 µM)
- pest or weed control at 50 ppm [2]: 80 to 100%

SMILES: OC(Cn1cnnn1)(c1ccc(F)cc1F)C(F)(F)c1ccc(OCC2CC2)cn1 (stereo not drawn) [Compound 39, 1-(5-(Cyclopropylmethoxy)pyridin-2-yl)-2-(2,4-difluorophenyl)-1,1-difluoro-3-(1H-tetrazol-1-yl)propan-2-ol]
- MIC [1]: ≤ 0.5 µg/mL
- pest or weed control at 50 ppm [2]: 80 to 100%

SMILES: COc1ccc(COc2ccc(C(F)(F)C(O)(Cn3cnnn3)c3ccc(F)cc3F)nc2)cc1 (stereo not drawn) [Compound 41, 2-(2,4-Difluorophenyl)-1,1-difluoro-1-(5-((4-methoxybenzyl)oxy)pyridin-2-yl)-3-(1H-tetrazol-1-yl)propan-2-ol]
- MIC [1]: ≤ 0.5 µg/mL
- pest or weed control at 50 ppm [2]: 80 to 100%

SMILES: CC(C)Oc1ccc(C(F)(F)C(O)(Cn2cnnn2)c2ccc(F)cc2F)nc1 (stereo not drawn) [Compound 42, 2-(2,4-Difluorophenyl)-1,1-difluoro-1-(5-isopropoxypyridin-2-yl)-3-(1H-tetrazol-1-yl)propan-2-ol]
- MIC [1]: 0.5 to 1.5 µg/mL (≈ 1.22 to 3.65 µM)
- pest or weed control at 50 ppm [2]: 80 to 100%

SMILES: CC(C)COc1ccc(C(F)(F)C(O)(Cn2cnnn2)c2ccc(F)cc2F)nc1 (stereo not drawn) [Compound 43, 2-(2,4-Difluorophenyl)-1,1-difluoro-1-(5-isobutoxypyridin-2-yl)-3-(1H-tetrazol-1-yl)propan-2-ol]
- MIC [1]: ≤ 0.5 µg/mL
- pest or weed control at 50 ppm [2]: 80 to 100%
